According to paper PMC3465515 (Nuclear medicine and biology, 2012):
Read-outs that look alike come from different tables or passages of the source.

Legend:
[1] = target: T1, human ERα (Homo sapiens, UniProt P03372); assay: competitive radiometric binding assay with [3H]estradiol, ERα
T1 sequence (P03372 1-595): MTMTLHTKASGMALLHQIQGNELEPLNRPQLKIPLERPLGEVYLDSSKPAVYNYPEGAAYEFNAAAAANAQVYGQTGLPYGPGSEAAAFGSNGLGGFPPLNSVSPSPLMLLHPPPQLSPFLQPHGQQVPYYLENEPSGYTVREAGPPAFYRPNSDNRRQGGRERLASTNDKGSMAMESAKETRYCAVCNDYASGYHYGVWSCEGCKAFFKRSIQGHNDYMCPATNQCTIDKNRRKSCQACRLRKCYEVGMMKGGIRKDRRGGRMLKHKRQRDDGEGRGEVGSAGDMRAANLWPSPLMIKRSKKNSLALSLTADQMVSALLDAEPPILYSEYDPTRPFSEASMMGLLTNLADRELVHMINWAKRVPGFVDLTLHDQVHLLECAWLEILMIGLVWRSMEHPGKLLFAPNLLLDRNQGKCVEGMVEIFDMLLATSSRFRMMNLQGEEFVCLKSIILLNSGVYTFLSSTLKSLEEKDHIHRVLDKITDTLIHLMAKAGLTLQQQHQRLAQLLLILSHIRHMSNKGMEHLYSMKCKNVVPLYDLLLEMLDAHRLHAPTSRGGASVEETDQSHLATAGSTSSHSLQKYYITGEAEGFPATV

[2] = target: human ERβ (Homo sapiens, UniProt Q92731); assay: competitive radiometric binding assay with [3H]estradiol, ERβ; conditions: for β/α ratio: ratio of RBA ERβ to RBA ERα
[3] = estradiol = 100, purified full-length human ERα, 18-24 h at 0 °C
[4] = estradiol = 100, purified full-length human ERβ, 18-24 h at 0 °C

human ERβ, sequence (Q92731 whole entry): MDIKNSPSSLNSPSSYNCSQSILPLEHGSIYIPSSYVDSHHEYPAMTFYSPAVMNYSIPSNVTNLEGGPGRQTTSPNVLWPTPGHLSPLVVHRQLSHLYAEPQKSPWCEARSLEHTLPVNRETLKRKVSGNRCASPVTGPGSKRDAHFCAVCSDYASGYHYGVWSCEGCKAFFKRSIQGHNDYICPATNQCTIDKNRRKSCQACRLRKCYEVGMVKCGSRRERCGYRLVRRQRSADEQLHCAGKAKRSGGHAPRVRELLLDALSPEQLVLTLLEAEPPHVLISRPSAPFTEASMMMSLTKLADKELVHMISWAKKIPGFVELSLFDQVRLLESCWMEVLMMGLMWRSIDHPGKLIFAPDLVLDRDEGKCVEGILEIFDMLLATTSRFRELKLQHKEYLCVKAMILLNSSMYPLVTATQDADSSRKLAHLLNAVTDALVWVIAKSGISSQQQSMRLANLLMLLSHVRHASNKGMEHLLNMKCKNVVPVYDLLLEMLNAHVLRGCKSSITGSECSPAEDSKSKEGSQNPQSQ

Row | SMILES | Relative Binding Affinity (RBA) ERα [1, 3] | fold lower affinity than parent 8BVE2, ERα ([1]; vs 8β-vinylestradiol) | Relative Binding Affinity (RBA) ERβ [2, 4] | β/α ratio [2] | fold lower affinity than parent 8BVE2, ERβ ([2]; vs 8β-vinylestradiol) | Relative Binding Affinity (RBA) ERα [1] | Relative Binding Affinity (RBA) ERβ [2]
1 | C[C@]12CC[C@@H]3c4ccc(O)cc4CC[C@@]3(CCF)[C@@H]1CC[C@@H]2O [compound 6, 8β-(2-Fluoroethyl)estra-1,3,5(10)-trien-3,17β-diol] | 0.046 ± 0.005% | ~10 fold | 8.27 ± 0.98% | 179 | ~10 fold | – | –
2 | C=Cc1cc(O)cc2nc(-c3ccc(O)c(F)c3)oc12 [ERB-041] | – | – | – | 460 | – | 0.007 ± 0.001% | 3.22 ± 0.91%
3 | C=C[C@@]12CCc3cc(O)ccc3[C@H]1CC[C@@]1(C)[C@H]2CC[C@@H]1O [compound 1, 8β-Vinyl-estra-1,3,5(10)-triene-3,17β-diol] | 0.30% | – | 105% | 350 | – | – | –
4 | N#C[C@H](c1ccc(O)cc1)[C@@H](CCF)c1ccc(O)cc1 [FEDPN] | 0.43 ± 0.09% | – | 8.74 ± 1.87% | 20 | – | – | –
